Results published in PMC7728372, “Synthesis and Biological Evaluation of Amino Chalcone Derivatives as Antiproliferative Agents” (Molecules, 2020).
Like-named read-outs stand apart in the source and are kept apart here.

Assays:
MCF-7 cells [1] = experiment: MTT antiproliferative assay, MCF-7 cells; format: cell-based, human
Method: (§1) Cell lines used were cultured in humidified incubator at 37 °C and 5% CO2. The RPMI-1640 medium was supplemented with 10% fetal bovine serum, penicillin (100 U/mL) and streptomycin (0.1 mg/mL).
(§2) Cell lines were seeded into […] and incubated for 24 h. Then cells were treated with different concentrations of compounds. And after another 48 h, MTT reagent (20 μL per well) was added and then incubated at 37 °C for 4 h. Formazan was then dissolved with DMSO. Absorbencies of formazan solution were measured at […]. The IC50 values of tested compounds were calculated by SPSS version 17.0.

MGC-803 cells [2] = experiment: MTT antiproliferative assay, MGC-803 cells; format: cell-based, human; details: exposure for 48 h
Method: as §1, §2

HepG2 cells = test system: HepG2 cells; set-up: method as in PMID 23471882; details: cited from earlier work
HCT-116 cells = experiment: MTT antiproliferative assay, HCT-116 cells; format: cell-based, human
Method: as §1, §2

GES-1 cells = experiment: MTT antiproliferative assay, non-cancer GES-1 cells; format: cell-based; details: non-cancer cell line, exposure for 48 h
Method: as §1, §2

MGC-803 cells [3] = test system: MGC-803 cells; set-up: method as in PMID 27423479, PMID 30763884, PMID 27213317; details: earlier work of the group; cited from earlier work
VEGFR-2/KDR kinase = molecular target: VEGFR-2/KDR kinase; set-up: method as in PMID 27777009; details: cited from earlier work
MCF-7 cells [4] = details: cited from earlier work
PC-3 cells = test system: PC-3 cells; set-up: method as in PMID 27777009; details: cited from earlier work
[5] = Homo sapiens, MCF7, exposure for 48 h
[6] = Homo sapiens, HCT-116, exposure for 48 h

IC50 (MCF-7 cells [1]; exposure for 48 h) [µM] | IC50 (MCF-7 cells [1]; [5]) [µM] | melting point [°C] | IC50 (HCT-116 cells; [6]) [µM] | IC50 (MGC-803 cells [2]; Homo sapiens, MGC-803, 48 h) [µM] | Compound | also measured
3.56 ± 0.17 | – | – | – | – | (E)-N-(4-(3-oxo-3-(3,4,5-trimethoxyphenyl) prop-1-en-1-yl) phenyl) acetamide [Compound 13a] | IC50 (MGC-803 cells [2]): 3.81 ± 0.22 µM
3.11 ± 0.34 | – | – | – | – | (E)-N-(4-(3-oxo-3-(3,4,5-trimethoxyphenyl) prop-1-en-1-yl)phenyl) pentanamide [Compound 13b] | IC50 (HCT-116 cells; exposure for 48 h): 6.72 ± 0.28 µM; IC50 (MGC-803 cells [2]): 4.08 ± 0.24 µM
– | 22.2 ± 0.83 | 161 to 162 | 13.1 ± 0.51 | 22.1 ± 0.75 | O=C(CCCCl)Nc1ccc(C(=O)/C=C/c2ccccc2)cc1 [Compound 13h] | –
– | 10.1 ± 0.73 | 166 to 167 | > 40 | 16.3 ± 0.65 | COc1ccc(/C=C/C(=O)c2ccc(NC(=O)CCCCl)cc2)cc1OC [Compound 13l] | –
– | > 40 | 167 to 168 | > 40 | > 40 | O=C(CCCCl)Nc1ccc(C(=O)/C=C/c2ccc(F)cc2)cc1 [Compound 13j] | –
– | 3.12 ± 0.01 | 182 to 183 | 2.83 ± 0.03 | 1.88 ± 0.22 | COc1cc(/C=C/C(=O)c2ccc(NC(=O)CCl)cc2)cc(OC)c1OC [Compound 13c] | –

Continued, compound first:

Compound | IC50 (MCF-7 cells [1]; exposure for 48 h) [µM] | IC50 (MCF-7 cells [1]; [5]) [µM] | melting point [°C] | IC50 (HCT-116 cells; [6]) [µM] | IC50 (MGC-803 cells [2]; Homo sapiens, MGC-803, 48 h) [µM] | also measured
COc1ccc(/C=C/C(=O)c2ccc(OC)c3c2OC(C)(C)C=C3)cc1 [Compound 3, millepachine] | – | – | – | – | – | IC50 (HepG2 cells): 1.51 µM
O=c1[nH]cc(F)c(=O)[nH]1 [Compound 5-Fu, reference compound] | 12.1 ± 1.28 | – | – | – | – | IC50 (HCT-116 cells; exposure for 48 h): 14.4 ± 1.73 µM; IC50 (GES-1 cells): 8.22 µM
COc1cc(/C=C/C(=O)c2ccc(NC(=O)CSC(=S)N3CCN(CCO)CC3)cc2)cc(OC)c1OC [Compound 6] | – | – | – | – | – | IC50 (MGC-803 cells [3]): 1.74 µM
CNC(=O)c1cc(Oc2ccc(C(=O)/C=C/c3cc(OC)c(OC)c(OC)c3)cc2)ccn1 [Compound 5] | – | – | – | – | – | IC50 (VEGFR-2/KDR kinase): 0.72 µM; IC50 (MCF-7 cells [4]): 3.88 µM; IC50 (PC-3 cells): 3.15 µM
